Literature values, collected in US11549199B2, “Active apparel and fabric and coverings” (priority 2017, dated 2023).

System: gram-positive and gram-negative bacteria

Substance: Poly-hexamethylene biguanide (PHMB) hydrochloride
- activity against gram-positive and gram-negative bacteria: active
